Experimental data: the supplement of paper PMC10307832

How the values were obtained:
Test in all cases: relative viability (nuclei count vs DMSO), 5 days (fraction); higher = more cells survive
[1] = compound: Nc1nc(Nc2ccc3c(c2)CC[C@@H](N2CCCC2)CC3)nn1-c1cc2c(nn1)-c1ccccc1CCC2 [Bemcentinib] + N=C(N)NC(=N)NCCc1ccccc1 [Phenformin] (partner 250 µM)
Summary of the method: (§1)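 Lung cancer cell lines in 1536-well plates got either a single drug or a fixed anchor-drug dose together with five library-drug doses (not always all listed) in √10 steps, by pin tool, on the day after seeding. Nuclei were counted after 5 days, and relative viability is the treated-to-vehicle ratio of nuclei counts. Values are medians of duplicate plates.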

[2] = compound: CNC(=O)c1ccccc1Sc1ccc2c(/C=C/c3ccccn3)n[nH]c2c1 [Axitinib] + Cc1nc(Nc2ncc(C(=O)Nc3c(C)cccc3Cl)s2)cc(N2CCN(CCO)CC2)n1 [Dasatinib] (partner 0.075 µM)
Summary of the method: as §1

[3] = compound: Nc1nc(Nc2ccc3c(c2)CC[C@@H](N2CCCC2)CC3)nn1-c1cc2c(nn1)-c1ccccc1CCC2 [Bemcentinib] + CS(=O)(=O)CCNCc1ccc(-c2ccc3ncnc(Nc4ccc(OCc5cccc(F)c5)c(Cl)c4)c3c2)o1 [Lapatinib] (partner 2 µM)
Summary of the method: as §1

[4] = compound: CC1=CC=C(C=C1)C(=O)CN2C3=C(CCCC3)SC2=N [Pifithrin_alpha] + Cc1nc(Nc2ncc(C(=O)Nc3c(C)cccc3Cl)s2)cc(N2CCN(CCO)CC2)n1 [Dasatinib] (partner 0.075 µM)
Summary of the method: as §1

Cell Line	relative viability ([1]; first compound 0.04 µM)	relative viability ([1]; first compound 0.1265 µM)	relative viability ([1]; first compound 0.4 µM)	relative viability ([1]; first compound 1.265 µM)	relative viability ([1]; first compound 4 µM)	relative viability ([2]; first compound 0.005 µM)	relative viability ([2]; first compound 0.01581 µM)	relative viability ([2]; first compound 0.05 µM)	relative viability ([2]; first compound 0.1581 µM)	relative viability ([2]; first compound 0.5 µM)	relative viability ([3]; first compound 0.04 µM)	relative viability ([3]; first compound 0.1265 µM)	relative viability ([3]; first compound 0.4 µM)	relative viability ([3]; first compound 1.265 µM)	relative viability ([3]; first compound 4 µM)	relative viability ([4]; first compound 1 µM)	relative viability ([4]; first compound 3.162 µM)	relative viability ([4]; first compound 10 µM)	relative viability ([4]; first compound 31.62 µM)	relative viability ([4]; first compound 100 µM)
NCI-H1563	0.671	0.742	0.671	0.671	0.618	0.482	0.456	0.457	0.449	0.426	0.907	0.887	1.04	0.976	0.958	0.406	0.478	0.369	0.442	0.44
EMC-BAC-2	0.515	0.516	0.556	0.507	0.514	0.353	0.327	0.315	0.379	0.383	0.917	0.959	0.957	0.878	0.898	0.311	0.319	0.298		0.311
NCI-H596	0.698	0.733	0.783	0.713	0.772	0.519	0.477	0.653	0.569	0.507	1.07	1.13	1.09	1.09	1.09	0.54	0.588	0.583	0.494	0.503
NCI-H2009	0.497	0.544	0.489	0.466	0.418	0.303	0.35	0.355	0.301	0.413	0.93	1.09	0.956	0.954	0.957	0.316	0.293	0.301	0.186	0.244
HOP-62	0.694	0.707	0.834	0.704	0.645	0.693	0.704	0.77	0.684	0.726	1.17	0.977		1.05	0.959	0.726	0.589	0.578	0.698	0.638
NCI-H2126	0.502	0.496	0.51	0.596	0.568	0.625	0.635	0.64	0.565	0.578	0.791	0.768	0.8	0.814	0.842	0.392	0.48	0.431	0.451	0.391
HCC-15	0.486	0.532	0.516	0.465	0.499	0.658	0.673	0.658	0.56	0.622	0.883	0.954	0.884	0.895	0.903	0.634	0.61	0.485	0.275	0.264
NCI-H23	0.813	0.822	0.803	0.659	0.755	1.04	0.872	0.933	0.778	0.803	0.966	1.28	1.32	1.19	1.1	0.887	0.675	0.741		0.456
LCLC-97TM1	0.471	0.483	0.407	0.383	0.396	0.834	0.722	0.857	0.753	0.842	0.777	1.11		1.12	0.941	1.08	0.846	0.984	0.428	0.954
SW 1573	0.415	0.373	0.363	0.368	0.365	0.586	0.564	0.796	0.365	0.424	0.976	1.03	1.18	0.961	1.09	0.616	0.513	0.602	0.36	0.577
EKVX	0.256	0.215	0.239	0.277	0.237	0.602	0.31	0.334	0.435	0.507	0.186	0.218	0.199	0.213	0.196		0.461	0.352	0.404	0.384
HCC-44	0.155	0.28	0.175	0.187	0.149						1.06	1.07	1.14	1.1	1.06					
NCI-H1651	0.352	0.324	0.283	0.316	0.354	0.482	0.396	0.409	0.404	0.502	0.836	0.979	1.1	0.815	0.822	0.37	0.506	0.425	0.322	0.326
COR-L23	0.425	0.44	0.449	0.465	0.493	0.53	0.542	0.438	0.493	0.674	1.18	0.997	1.14	1.05	1.02	0.567	0.458	0.386		0.38
NCI-H1299											0.991	0.995	0.962	0.938	0.978					
NCI-H1734	0.406	0.384	0.42	0.434	0.372	0.515	0.491	0.507	0.499	0.446	1.11	1.08	1.12	1.03	1.04	0.421	0.494	0.474	0.461	0.424
NCI-H1793	0.395	0.463	0.384		0.336	0.406	0.405	0.394	0.293	0.301	0.488	0.621	0.693	0.582	0.75		0.466	0.4	0.403	0.393
NCI-H522	0.598	0.733	0.729	0.722	0.674	1.51	0.842	0.883	0.898	0.728						0.972	0.887	0.779	0.757	0.816
LU99A	0.806	0.856	0.835	0.801	0.827	0.626	0.563	0.589	0.577	0.475	0.961	1.26	1.15	0.961	0.893	0.385	0.651	0.609	0.369	0.583

Cell Line	relative viability ([1]; first compound 0.04 µM)	relative viability ([1]; first compound 0.1265 µM)	relative viability ([1]; first compound 0.4 µM)	relative viability ([1]; first compound 1.265 µM)	relative viability ([1]; first compound 4 µM)	relative viability ([2]; first compound 0.005 µM)	relative viability ([2]; first compound 0.01581 µM)	relative viability ([2]; first compound 0.05 µM)	relative viability ([2]; first compound 0.1581 µM)	relative viability ([2]; first compound 0.5 µM)	relative viability ([3]; first compound 0.04 µM)	relative viability ([3]; first compound 0.1265 µM)	relative viability ([3]; first compound 0.4 µM)	relative viability ([3]; first compound 1.265 µM)	relative viability ([3]; first compound 4 µM)	relative viability ([4]; first compound 1 µM)	relative viability ([4]; first compound 3.162 µM)	relative viability ([4]; first compound 10 µM)	relative viability ([4]; first compound 31.62 µM)	relative viability ([4]; first compound 100 µM)
NCI-H1437	0.305	0.33	0.375	0.3	0.296	0.396	0.388	0.448	0.388	0.442	0.798	0.764	0.854	0.771	0.882	0.545	0.474	0.401	0.349	0.45
NCI-H460	0.552	0.7	0.522	0.607	0.568	0.429	0.515	0.607	0.49	0.441	0.931	1.46	1.3	1.14	1.12	0.433	0.414	0.35	0.31	0.266
NCI-H1395	0.406	0.43	0.434	0.451	0.446	0.403	0.425	0.39	0.404	0.397	0.95	1.19	0.999	1.06	0.897	0.407	0.419	0.371	0.399	0.386
NCI-H2085	0.694	0.776	0.688	0.572	0.697	0.237	0.22	0.216	0.247	0.199	0.625	0.805	0.756	0.74	0.721	0.205	0.262	0.222	0.268	0.174
NCI-H1703												1.18	1.24	1.17	1.13					
HCC-366	0.604	0.63	0.638	0.653	0.587	0.7	0.646	0.711	0.581	0.455	0.994	1.16	1.51	1.06	1.03	0.501	0.506	0.426		0.537
NCI-H322M	0.726	0.804	0.739	0.862	0.833	0.253	0.231	0.239	0.259	0.246	0.576	0.635	0.574	0.645	0.611	0.25	0.258	0.245	0.245	0.226
201T	0.417	0.504	0.48	0.454	0.455	0.557	0.553	0.567	0.526	0.562	1	1.02	1.02	1.03	1.06	0.47	0.337	0.431	0.392	0.399
SK-LU-1	0.521	0.633	0.485	0.548	0.6	0.163	0.186	0.171	0.181	0.215	0.806	0.888	0.865	0.964	0.904	0.175	0.193	0.181		0.168
ChaGo-K-1	0.486	0.544	0.517	0.473	0.442	0.611	0.552	0.583	0.423	0.611						0.641	0.594	0.614	0.509	0.497
Calu-6											1.02	1.25	1.34	1.13	1.11					
EBC-1											0.203	0.189	0.302	0.204	0.221					
IA-LM											0.661	0.814	1.13	0.832	0.775					
NCI-H2342	0.564	0.581	0.611	0.617	0.611	0.311	0.325	0.347	0.349	0.297						0.255	0.316	0.317	0.31	0.31
SW 900	0.396	0.588	0.557	0.648	0.458	0.439	0.555	0.663	0.653	0.709						0.366	0.487	0.318	0.349	0.307
NCI-H1623	0.607	0.497	0.621	0.641	0.563	0.574	0.477	0.559	0.528	0.506						0.463	0.603	0.523	0.56	0.448
LCLC-103H	0.366	0.255	0.332	0.289	0.35	0.524	0.516	0.483	0.402	0.364						0.518	0.474	0.498	0.43	0.425
NCI-H441	0.831	0.919	1.04	1.04	0.948	0.592	0.722	0.595	0.575	0.604						0.556	0.574	0.498		0.613
A549	0.126	0.124	0.17	0.121	0.147						0.954	0.999	1.14	0.956	1.02					
